# According to PMC12312386, “Multiple transactivation domains of EZH2 bind to the TAZ2 domain of p300 and stimulate the acetyltransferase function of p300” (Biochemical Journal, 2025):
# No end group written: not given here.
# What was measured:
# [1] = target: T1, p300TAZ2 (TAZ2 domain of p300) (Homo sapiens, UniProt Q09472, A1723W); experiment: Microscale thermophoresis (MST) binding of p300TAZ2-His to EZH2 TAD peptides; settings: direct binding, p300TAZ2-6×His labeled RED-tris-NTA, 10 nM; 25 mM Tris pH 7.5, 150 mM NaCl, 2.5 mM DTT; 1:1 stoichiometry; average ± SD of three (EZH2TAD2, EZH2TAD3) or four (EZH2TAD1) independent measurements
# T1 construct: Human p300TAZ2 [aa 1722–1812, pGEX-4T-1 vector with an additional tobacco etch virus (TEV) cleavage site]; GST (pGEX-4T-1, TEV site) (N, cleaved yes); made in house; host or cells: Escherichia coli Rosetta-2 (DE3) pLysS
# T1 sequence (Q09472 1722-1812 A1723W): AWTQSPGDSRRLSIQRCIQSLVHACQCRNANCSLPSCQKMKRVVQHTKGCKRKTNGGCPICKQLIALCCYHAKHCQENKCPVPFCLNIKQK
# Description: After induction with isopropyl b-D-1-thiogalactopyranoside (IPTG), harvesting, and lysis in buffer [50 mM Tris pH 7.0, 1 M NaCl, 5 mM dithiothreitol (DTT), 1 mM phenylmethanesulfonylfluoride (PMSF) and DNase] by sonication, the proteins were purified on glutathione agarose beads (Pierce) and eluted with buffer containing reduced L-glutathione (Fisher). The GST tag was either cleaved with TEV protease overnight at 22°C or kept intact during subsequent purification steps. Both GST- and His-tagged proteins, as well as untagged p300TAZ2, were further purified by cation exchange (HiTrap SP HP, Cytiva) or heparin affinity chromatography (HiTrap Heparin HP, Cytiva).
# MST experiments were carried out on a Monolith NT.115 instrument (NanoTemper). All experiments were performed using SEC-purified p300TAZ2-6×His protein in 25 mM Tris pH 7.5 buffer, 150 mM NaCl, and 2.5 mM DTT. p300TAZ2-6×His was labeled using a His-Tag Labeling Kit RED-tris-NTA (2nd Generation, NanoTemper) and kept constant at 10 nM. Dissociation constants were determined using a direct binding assay in which peptide was varied in concentration by serial dilution of discrete samples. The measurements were performed at 50% LED and medium MST power with 3-s pre-laser time, 20-s laser on-time, and 1-s off-time.
# [2] = test system: FLAG-HA-tagged p300 catalytic core (aa 1035–1830 of p300); experiment: Histone acetyltransferase (HAT) assay, Western blot, recombinant nucleosome substrate; format: biochemical; settings: 1 μg p300 core, 2.5, 5 or 10 μg GST-tagged TADs, 1 μg nucleosome, 100 mM acetyl-CoA, 50 mM Tris-HCl pH 8.0, 30°C, 15 min
# Description: Histone acetyltransferase assay
# For HAT assays, FLAG-HA-tagged p300 core (aa 1035–1830 of p300) in a pCDH vector was expressed in 293 T cells for two days. Cells were lysed in lysis buffer (50 mM Tris-HCl pH 7.5, 300 mM NaCl, 1.5 mM MgCl2, 1 mM EDTA, 1% Triton100, 10% glycerol, 1 mM PMSF, and protease inhibitors) and sonicated. Cell lysates were incubated with anti-Flag M2 beads (Sigma) at 4° for 4 h. The beads were then washed three times with buffer (50 mM Tris-HCl pH 7.5, 500 mM NaCl, 1.5 mM MgCl2, 0.2 mM EDTA, 0.1% NP40, 10% glycerol, and 1 mM PMSF), and the protein was eluted with elution buffer (50 mM Tris-HCl pH 7.5, 300 mM NaCl, 1 mM DTT, 10% glycerol, and 0.4 mg/ml Flag peptide). […]
# Purified FLAG-HA-tagged p300 catalytic core fragment (1 μg) was incubated with increasing amounts of GST-tagged EZH2TADs and GST-tagged EZH1TADs (2.5, 5, or 10 μg) and the nucleosome (1 μg) in HAT reaction buffer (50 mM Tris-HCl pH 8.0, 100 mM NaCl, 10% glycerol, 1 mM DTT, […], and 1× cOmplete EDTA-free Protease Inhibitor Cocktail) at 30°C for 15 min. Reactions were stopped by boiling at 95°C for 5 min in 2×SDS loading buffer, and samples were analyzed by SDS-PAGE and Western blot. […]
# GST-p300TAZ2 = experiment: Mass photometry (MP) of GST-p300TAZ2 with EZH2TAD constructs; format: binding, human
# Description: [37]. […] After induction with isopropyl b-D-1-thiogalactopyranoside (IPTG), harvesting, and lysis in buffer [50 mM Tris pH 7.0, 1 M NaCl, 5 mM dithiothreitol (DTT), 1 mM phenylmethanesulfonylfluoride (PMSF) and DNase] by sonication, the proteins were purified on glutathione agarose beads (Pierce) and eluted with buffer containing reduced L-glutathione (Fisher). The GST tag was either cleaved with TEV protease overnight at 22°C or kept intact during subsequent purification steps. […] The EZH2TAD1 ([…]) construct was generated by deletion using Q5 Hot Start High-Fidelity kit (NEB) and confirmed by DNA sequencing. Both constructs were expressed in E. coli Rosetta-2 (DE3) pLysS cells grown in LB media and induced at an OD600 of 0.6-0.8 with 1 mM IPTG for 16 h at 16°C. Cells were harvested by centrifugation, suspended in buffer (50 mM Tris pH 7.5, 500 mM NaCl, 1% CHAPS, 2 mM DTT, 1 mM PMSF, Roche cOmplete Protease Inhibitor Cocktail, and DNase), and lysed by sonication. […] When necessary, EZH2TAD constructs were further purified using a Superdex 200 Increase 10/300 GL column (Cytiva) with monitoring at 205 and 280 nm. […] To overcome the minimum size limit, a GST-fusion construct was used for one of the components in each sample. […] Ten microliter of each sample was loaded into the sample wells of the silicon cassettes assembled onto MassGlass UC coverslips (Refeyn, Ltd.). […]
# p300TAZ2 = experiment: Mass photometry (MP) of GST-EZH2TAD1 with p300TAZ2; format: binding, human
# Description: [37]. Briefly, both ^15N-labeled and unlabeled constructs were expressed in Escherichia coli Rosetta-2 (DE3) pLysS cells grown in either M9 minimal media or TB, both supplemented with 50-150 μM ZnCl2. After induction with isopropyl b-D-1-thiogalactopyranoside (IPTG), harvesting, and lysis in buffer [50 mM Tris pH 7.0, 1 M NaCl, 5 mM dithiothreitol (DTT), 1 mM phenylmethanesulfonylfluoride (PMSF) and DNase] by sonication, the proteins were purified on glutathione agarose beads (Pierce) and eluted with buffer containing reduced L-glutathione (Fisher). The GST tag was either cleaved with TEV protease overnight at 22°C or kept intact during subsequent purification steps. […] Human EZH2[…]3 ([…]) construct with a C-terminal 6×His tag was cloned into a pGEX-6P-1 vector (GenScript). The EZH2TAD1 ([…]) construct was generated by deletion using Q5 Hot Start High-Fidelity kit (NEB) and confirmed by DNA sequencing. Both constructs were expressed in E. coli Rosetta-2 (DE3) pLysS cells grown in LB media and induced at an OD600 of 0.6-0.8 with 1 mM IPTG for 16 h at 16°C. Cells were harvested by centrifugation, suspended in buffer (50 mM Tris pH 7.5, 500 mM NaCl, 1% CHAPS, 2 mM DTT, 1 mM PMSF, Roche cOmplete Protease Inhibitor Cocktail, and DNase), and lysed by sonication. […] When necessary, EZH2TAD constructs were further purified using a Superdex 200 Increase 10/300 GL column (Cytiva) with monitoring at 205 and 280 nm. Mass Photometry […] To overcome the minimum size limit, a GST-fusion construct was used for one of the components in each sample. […] Ten microliter of each sample was loaded into the sample wells of the silicon cassettes assembled onto MassGlass UC coverslips (Refeyn, Ltd.). Measurements were performed at room temperature in buffer (50 mM Tris pH 7.5, 150 mM NaCl, 5 mM DTT). β-amylase was used as calibration standard (56 kDa, 112 kDa, and 224 kDa). After the focus was set and locked, movies were captured for 60 s (2800 frames) using AcquireMP software (Refeyn Ltd). Data were processed using DiscoverMP (Refeyn Ltd).
substance,measurement,setting,value
DGTFIEELIKNYD [EZH2TAD1],Kd,[1],530 ± 80 nM
EZH2 WT: GST-tagged EZH2TAD1-TAD2-TAD3 (aa 119–267),H3K18 acetylation by p300 core,[2]; H3K18ac Western blot,dose-dependent increase in H3K18 and H3K27 acetylation
same,H3K27 acetylation by p300 core,[2]; H3K27ac Western blot,dose-dependent increase in H3K18 and H3K27 acetylation
"EZH2TAD1-TAD2-TAD3: recombinant human EZH2 aa 142–231 construct with a C-terminal 6×His tag, used in mass photometry",MP peak of complex with GST-p300TAZ2,"GST-p300TAZ2; 20 nM GST-p300TAZ2 + 1 μM EZH2TAD1-TAD2-TAD3, room temperature, 50 mM Tris pH 7.5, 150 mM NaCl, 5 mM DTT",~ 224 kDa
same,stoichiometry of the complex with GST-p300TAZ2,"GST-p300TAZ2; from MP peak, 20 nM GST-p300TAZ2, EZH2TAD1-TAD2 5 μM or EZH2TAD1-TAD2-TAD3 1 μM",six molecules of GST-p300TAZ2 and one molecule of EZH2TAD1-TAD2-TAD3
"GST-EZH2TAD1: recombinant GST-tagged EZH2TAD1 (aa 142–160) construct (DGTFIEELIKNYDGKVHGD-His6; also: GST tag, end not given here)",shift of the MP peak upon addition of p300TAZ2,"p300TAZ2; 20 nM GST-EZH2TAD1, 0.1 μM p300TAZ2",~ 14 kDa
same,oligomeric state in the apo-state,p300TAZ2; 20 nM GST-EZH2TAD1 alone,formed a dimer in the apo-state
same,"MP peak, apo GST-EZH2TAD1","p300TAZ2; 20 nM GST-EZH2TAD1 alone, room temperature, 50 mM Tris pH 7.5, 150 mM NaCl, 5 mM DTT",~ 70 kDa
same,oligomeric state / stoichiometry of GST-EZH2TAD1 complexes,p300TAZ2; 20 nM GST-EZH2TAD1 with 0.1 μM p300TAZ2,dimeric GST-EZH2TAD1 bound by one molecule of p300TAZ2 and by two molecules of p300TAZ2
NDEIFVELVNALGQYNDDD [EZH2TAD2],Kd,[1],310 nM
SDKIFEAISSMF [EZH2TAD3],Kd,[1],520 ± 60 nM
